According to patent US20190255073A1, “ESTERS OF 3-POLYAMINE DERIVATIVES OF BILE ACIDS FOR THE TREATMENT OF INFECTIONS” (VIRBAC, priority 2016, published 2019):
In brackets after ≈: the same amount, converted by molar mass. Where two headings read alike, the source gives them in different places.

What was measured:
[1] = system: S. intermedius (1051997); experiment: MIC determination by microplate dilution, S. intermedius animal strain; type: cell-based, Staphylococcus intermedius; conditions: Staphylococcus intermedius, Gram-positive, Mueller-Hinton medium, 24 h, 37° C.
Method in brief: (§1)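 Strains precultured in Mueller-Hinton broth 24 h at 37 °C; compounds from 5 mg/mL stocks in DMSO/methanol 50/50, twofold serial dilution in 96-well plates, inoculum set to OD 0.01. Incubated 24 h at 37 °C, humid; OD read at 620 nm to derive MIC, duplicates.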

[2] = system: S. aureus (340); experiment: MIC determination by microplate dilution, S. aureus animal strain; type: cell-based, Staphylococcus aureus; conditions: Staphylococcus aureus, Gram-positive, Mueller-Hinton medium, 24 h, 37° C.
Method in brief: as §1

[3] = system: E. coli (1956); experiment: MIC determination by microplate dilution, E. coli animal strain; type: cell-based, Escherichia coli; conditions: Escherichia coli, Gram-negative, Mueller-Hinton medium, 24 h, 37° C.
Method in brief: as §1

[4] = system: P. aeruginosa (1051575); experiment: Potentiation of erythromycin activity; type: cell-based, Pseudomonas aeruginosa; conditions: concentration of compound required with erythromycin 2 μg/mL
Procedure: (§2) This method requires the use of a 96-well plate: 100 μL of a liquid culture medium are placed in each well and then seeded with the microbial suspension prepared previously. The required volume to be seeded is calculated for an OD of 0.01, which corresponds to about 5×10^6 bacteria in each well. In this plate, the first line corresponds to a negative control (200 μL of sterile culture medium in each well), the second line corresponds to a positive control (100 μL of sterile culture medium+100 μL of the bacterial suspension), and the third line contains 192 μL of culture medium; 8 μL of compound of formula (I) to be tested are placed in each well. Thereafter, a cascade dilution is performed from this line. μL of a doxycycline solution (1 mg dissolved in 20 mL) are then added to each well of the lines 3 to 8 to obtain a final antibiotic concentration of 2 μg/mL. 92 μL of bacterial suspension are then added to lines 3 to 8. […] After 24 hours of incubation at 37° C., 40 μL of nitro tetrazolium iodide are added to each well to reveal the presence of live bacteria by staining the medium pink.
The procedure is identical to that indicated in Example 5 above. 8 μL of an antibiotic solution under consideration (1 mg dissolved in 20 mL) are added to obtain a final antibiotic concentration of 2 μg/mL instead of 8 μL of a doxycycline solution.
(§3) The results are given in table V. They indicate the concentration of compound of formula (I) required to be able to restore the activity of the antibiotic under consideration.

[5] = system: P. aeruginosa (1051575); experiment: MIC determination by microplate dilution, P. aeruginosa animal strain; type: cell-based, Pseudomonas aeruginosa; conditions: Pseudomonas aeruginosa, Gram-negative, Mueller-Hinton medium, 24 h, 37° C.
Method in brief: as §1

[6] = system: P. aeruginosa (1051575); experiment: Potentiation of chloramphenicol activity; type: cell-based, Pseudomonas aeruginosa; conditions: concentration of compound required with chloramphenicol 2 μg/mL
Procedure: as §2, with “Thereafter, a cascade dilution is performed from this line. μL of a doxycycline solution (1 mg dissolved in 20 mL) are then added to each well of the lines 3 to 8 to obtain a final antibiotic concentration of 2 μg/mL.” left out
The procedure is identical to that indicated in Example 5 above. […]
as §3

[7] = system: P. aeruginosa ATCC27853; experiment: MIC determination by microplate dilution, P. aeruginosa human strain; type: cell-based, Pseudomonas aeruginosa; conditions: Pseudomonas aeruginosa, ATCC27853, Gram-negative, Mueller-Hinton medium, 24 h, 37° C.
Method in brief: as §1

[8] = system: E. coli ATCC28922; experiment: MIC determination by microplate dilution, E. coli human strain; type: cell-based, Escherichia coli; conditions: Escherichia coli, ATCC28922, Gram-negative, Mueller-Hinton medium, 24 h, 37° C.
Method in brief: as §1

[9] = system: C. albicans; experiment: Antifungal activity, cascade microdilution, C. albicans; type: cell-based, Candida albicans; conditions: Candida albicans, 24 h, read-out: IC50 (μg/mL) C. albicans
[10] = system: E. faecalis ATCC29212; experiment: MIC determination by microplate dilution, E. faecalis human strain; type: cell-based, Enterococcus faecalis; conditions: Enterococcus faecalis, ATCC29212, Gram-positive, Mueller-Hinton medium, 24 h, 37° C.
Method in brief: as §1

[11] = system: S. aureus ATCC25923; experiment: MIC determination by microplate dilution, S. aureus human strain; type: cell-based, Staphylococcus aureus; conditions: Staphylococcus aureus, ATCC25923, Gram-positive, Mueller-Hinton medium, 24 h, 37° C.
Method in brief: as §1

[12] = system: P. aeruginosa (1051575); experiment: Potentiation of the doxycycline activity at 2 μg/mL; type: cell-based, Pseudomonas aeruginosa; conditions: in combination with doxycycline 2 μg/mL; 24 h, 37°
[13] = system: CHO-K1 cells; experiment: WST1 cytotoxicity test on CHO-K1 cells; type: cell-based, Chinese hamster; conditions: Cricetulus griseus
Method in brief: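 CHO-K1 cells seeded 24 h, then exposed to increasing compound concentrations in duplicate for 24 h at 37 °C, 5% CO2. Viability by WST-1 reduction (20 min, 37 °C), absorbance at 450 nm. IC50 = concentration reducing viability by 50%, from nonlinear regression of dose-response.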

[14] = CHO-K1, 24 h, read-out: IC50 (μg/mL) CHO
[15] = CHO-K1, read-out: IC50 (μg/mL) CHO

Compound	MIC [1] [µg/mL]	MIC [2] [µg/mL]	MIC [3] [µg/mL]	MIC P. aeruginosa (1051575), compound + erythromycin [4] [µg/mL]	MIC [5] [µg/mL]	MIC P. aeruginosa (1051575), compound + chloramphenicol [6] [µg/mL]	MIC [7] [µg/mL]	MIC [8] [µg/mL]	IC50 [9] [µg/mL]	MIC [10] [µg/mL]	MIC [11] [µg/mL]	MIC - P. aeruginosa (1051575): content of compound of formula (I) to restore the doxycycline activity (at 2 μg/mL) [12] [µg/mL]	IC50 [13, 14] [µg/mL]	IC50 [13, 15] [µg/mL]	IC50 ([9]; compounds as hydrochloride in water, MH medium) [µg/mL]	IC50 ([13]; CHO-K1, CHO (Example 7), read-out: IC50 (μg/mL) CHO) [µg/mL]
CC(C)OC(=O)CC[C@@H](C)[C@H]1CCC2C3C(CC[C@@]21C)[C@@]1(C)CC[C@H](NCCCN(C)CCCN)CC1C[C@@H]3O (stereo partly drawn) [(44), isopropyl 3β-(bis(3-aminopropyl)methylamine)ursodeoxycholate]	14 (≈ 24.9 µM)	28 (≈ 49.8 µM)	56 (≈ 99.7 µM)	55	28 (≈ 49.8 µM)	14	–	–	–	–	–	–	–	–	–	–
COC(=O)CC[C@@H](C)[C@H]1CCC2C3CCC4C[C@@H](NCCCN(C)CCCN)CC[C@]4(C)C3C[C@H](O)[C@@]21C (stereo partly drawn) [(31), methyl 3β-(bis(3-aminopropyl)methylamine)deoxycholate]	3 (≈ 5.62 µM)	7 (≈ 13.1 µM)	13 (≈ 24.4 µM)	–	13 (≈ 24.4 µM)	–	26 (≈ 48.7 µM)	26 (≈ 48.7 µM)	2 (≈ 3.75 µM)	13 (≈ 24.4 µM)	7 (≈ 13.1 µM)	3	55 (≈ 103 µM)	55 (≈ 103 µM)	–	–
COC(=O)CC[C@@H](C)[C@H]1CCC2C3CCC4C[C@@H](NCCCN(CCCN)CCCN)CC[C@]4(C)C3C[C@H](O)[C@@]21C (stereo partly drawn) [(32), methyl 3β-(tris(3-aminopropyl)amine)deoxycholate]	7 (≈ 12.1 µM)	7 (≈ 12.1 µM)	30 (≈ 52 µM)	–	7 (≈ 12.1 µM)	–	14 (≈ 24.3 µM)	7 (≈ 12.1 µM)	2 (≈ 3.47 µM)	14 (≈ 24.3 µM)	4 (≈ 6.93 µM)	4	30 (≈ 52 µM)	30 (≈ 52 µM)	–	–
CC(C)OC(=O)CC[C@@H](C)[C@H]1CCC2C3CCC4C[C@@H](NCCCN(CCCN)CCCN)CC[C@]4(C)C3CC[C@@]21C (stereo partly drawn) [(47), isopropyl 3β-(tris(3-aminopropyl)amine)lithocholate]	4 (≈ 6.79 µM)	7 (≈ 11.9 µM)	60 (≈ 102 µM)	30	30 (≈ 50.9 µM)	4	–	–	–	–	–	–	–	–	2 (≈ 3.4 µM)	120 (≈ 204 µM)
CC(C)OC(=O)CC[C@@H](C)[C@H]1CCC2C3CCC4C[C@@H](NCCCN(C)CCCN)CC[C@]4(C)C3CC[C@@]21C (stereo partly drawn) [(49), isopropyl 3β-(bis(3-aminopropyl)methylamine)lithocholate]	14 (≈ 25.6 µM)	27 (≈ 49.5 µM)	27 (≈ 49.5 µM)	55	27 (≈ 49.5 µM)	14	–	–	–	–	–	–	–	–	–	–
CC(C)OC(=O)CC[C@@H](C)[C@H]1CCC2C3CCC4C[C@@H](NCCNCCNCCNCCNCCN)CC[C@]4(C)C3CC[C@@]21C (stereo partly drawn) [(26), isopropyl 3β-(pentaethylenehexamine)lithocholate]	8 (≈ 12.6 µM)	18 (≈ 28.4 µM)	60 (≈ 94.8 µM)	60	60 (≈ 94.8 µM)	8	–	–	–	–	–	–	–	–	–	–
